Measurements taken from the NIST ThermoML archive (doi:10.1021/je050416y).

What was measured:
[1] = 101 kPa, Liquid; for mass density: Vibrating tube method
[2] = xn = mol fraction of the nth substance listed; conditions: 101 kPa, Liquid, x2 = 0; for mass density: Vibrating tube method

CCC(C)(C)O [2-methylbutan-2-ol]
[1]
Conditions | kinematic viscosity [m2/s] | mass density [kg/m3]
293.15 K | 5.11e-06 | 813.9
298.15 K | 4.47e-06 | 810.5
303.15 K | 3.91e-06 | 807
308.15 K | 3.39e-06 | 803.5
313.15 K | 2.91e-06 | 800
318.15 K | 2.52e-06 | 796.6
323.15 K | 2.09e-06 | 793.3

CCO [ethanol]
[1]
Conditions | kinematic viscosity [m2/s] | mass density [kg/m3]
293.15 K | 1.52e-06 | 789.7
298.15 K | 1.39e-06 | 785.3
303.15 K | 1.23e-06 | 780.9
308.15 K | 1.13e-06 | 776.5
313.15 K | 1.02e-06 | 772.2
318.15 K | 9.4e-07 | 767.9
323.15 K | 8.28e-07 | 763.5

CC(C)CCO [3-methylbutan-1-ol]
[1]
Conditions | kinematic viscosity [m2/s] | mass density [kg/m3]
293.15 K | 5e-06 | 808.3
298.15 K | 4.35e-06 | 804.6
303.15 K | 3.81e-06 | 800.8
308.15 K | 3.33e-06 | 797.1
313.15 K | 2.94e-06 | 793.2
318.15 K | 2.59e-06 | 789.5
323.15 K | 2.29e-06 | 785.7

CCO [ethanol] + CCC(C)(C)O
[2]
Conditions | kinematic viscosity [m2/s] | mass density [kg/m3]
293.15 K | 1.52e-06 | 789.7
298.15 K | 1.39e-06 | 785.3
303.15 K | 1.23e-06 | 780.9
308.15 K | 1.13e-06 | 776.5
313.15 K | 1.02e-06 | 772.2
318.15 K | 9.4e-07 | 767.9
323.15 K | 8.28e-07 | 763.5

CCC(C)CO (stereo not drawn) [2-methyl-1-butanol]
[1]
Conditions | kinematic viscosity [m2/s] | mass density [kg/m3]
293.15 K | 6.11e-06 | 817.6
298.15 K | 5.34e-06 | 814.1
303.15 K | 4.69e-06 | 810.5
308.15 K | 4.08e-06 | 807.1
313.15 K | 3.54e-06 | 803.6
318.15 K | 3.09e-06 | 800.1
323.15 K | 2.72e-06 | 796.6

CCO [ethanol] + CCC(C)CO
[2]
Conditions | kinematic viscosity [m2/s] | mass density [kg/m3]
293.15 K | 1.52e-06 | 789.7
298.15 K | 1.39e-06 | 785.3
303.15 K | 1.23e-06 | 780.9
308.15 K | 1.13e-06 | 776.5
313.15 K | 1.02e-06 | 772.2
318.15 K | 9.4e-07 | 767.9
323.15 K | 8.28e-07 | 763.5

CCO [ethanol] + CC(C)CCO
[2]
Conditions | kinematic viscosity [m2/s] | mass density [kg/m3]
293.15 K | 1.52e-06 | 789.7
298.15 K | 1.39e-06 | 785.3
303.15 K | 1.23e-06 | 780.9
308.15 K | 1.13e-06 | 776.5
313.15 K | 1.02e-06 | 772.2
318.15 K | 9.4e-07 | 767.9
323.15 K | 8.28e-07 | 763.5
